As a reminder, the IC50 is the concentration needed to halve the response being measured. Usually Ki stands for the equilibrium dissociation constant of an inhibitor or competing ligand from its target. The term CC50 denotes the concentration that lowers cell viability or growth by half.

The target of data set [1] is Glutamate [NMDA] receptor. Put plainly: Displacement of [3H]MK-801 from NMDA receptor (unknown origin). It counts as protein-complex assay, Homo sapiens. On the technique in general: In a radioligand displacement assay an active substance lowers the binding of a labelled ligand.
Data set [2] concerns the target T1, Glutamate receptor ionotropic AMPA (Homo sapiens, UniProt P42261+P42262+P42263+P48058). Description: Displacement of [3H]AMPA from AMPA receptor (unknown origin). In kind it is protein-complex assay.
The target of data set [3] is T1, Glutamate receptor ionotropic AMPA. Description: Displacement of [3H]kainic acid from AMPA receptor (unknown origin). It counts as protein-complex assay.
The target is the same in data set [4]. Description: Antagonist activity at AMPA receptor (unknown origin) assessed as AMPA-induced depolarizations. It counts as protein-complex assay.
The nature of data set [5]: Displacement of [3H]glycine from AMPA receptor (unknown origin). In kind it is protein-complex assay, Homo sapiens.
Data set [6] has as its target Glutamate [NMDA] receptor. Description: Antagonist activity at NMDA receptor (unknown origin) assessed as NMDA-induced depolarizations. It counts as protein-complex assay, Homo sapiens.
Data set [7] deals with T1, Glutamate receptor ionotropic AMPA. Description: Displacement of [3H]CNQX from AMPA receptor (unknown origin). In kind it is protein-complex assay.
Data set [8] deals with Glutamate receptor ionotropic, kainate 2 (Homo sapiens, UniProt Q13002). Put plainly: Binding affinity to GluK2 receptor (unknown origin).
Chain of Glutamate receptor ionotropic, kainate 2 (Q13002 whole entry): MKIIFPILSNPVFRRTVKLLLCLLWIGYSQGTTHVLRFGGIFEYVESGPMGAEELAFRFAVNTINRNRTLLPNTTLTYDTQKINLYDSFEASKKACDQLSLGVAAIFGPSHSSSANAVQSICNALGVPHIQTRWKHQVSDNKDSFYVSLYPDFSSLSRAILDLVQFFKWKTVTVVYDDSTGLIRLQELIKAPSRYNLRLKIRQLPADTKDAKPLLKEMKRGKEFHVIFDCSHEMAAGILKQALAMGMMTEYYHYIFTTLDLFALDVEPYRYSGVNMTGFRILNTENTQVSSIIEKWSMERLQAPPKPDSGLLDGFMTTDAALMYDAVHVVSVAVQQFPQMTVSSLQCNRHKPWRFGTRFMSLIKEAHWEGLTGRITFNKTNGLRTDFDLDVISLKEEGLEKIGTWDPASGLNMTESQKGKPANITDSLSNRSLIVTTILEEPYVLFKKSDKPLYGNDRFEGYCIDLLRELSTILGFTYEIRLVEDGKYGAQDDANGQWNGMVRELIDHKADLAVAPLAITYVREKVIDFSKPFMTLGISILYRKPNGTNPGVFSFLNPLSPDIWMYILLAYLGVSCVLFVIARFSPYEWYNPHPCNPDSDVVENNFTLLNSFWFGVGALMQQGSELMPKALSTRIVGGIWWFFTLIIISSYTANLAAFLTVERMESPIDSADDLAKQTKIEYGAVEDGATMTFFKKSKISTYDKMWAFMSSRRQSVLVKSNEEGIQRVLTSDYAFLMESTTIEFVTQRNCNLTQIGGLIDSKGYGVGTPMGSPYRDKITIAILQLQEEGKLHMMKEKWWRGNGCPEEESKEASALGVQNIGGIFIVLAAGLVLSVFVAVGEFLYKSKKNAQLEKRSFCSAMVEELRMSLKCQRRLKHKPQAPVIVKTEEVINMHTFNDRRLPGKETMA
For data set [9], the target named is T2, Glutamate receptor ionotropic, kainate 5 (Homo sapiens, UniProt Q16478).
T2 sequence (Q16478 whole entry): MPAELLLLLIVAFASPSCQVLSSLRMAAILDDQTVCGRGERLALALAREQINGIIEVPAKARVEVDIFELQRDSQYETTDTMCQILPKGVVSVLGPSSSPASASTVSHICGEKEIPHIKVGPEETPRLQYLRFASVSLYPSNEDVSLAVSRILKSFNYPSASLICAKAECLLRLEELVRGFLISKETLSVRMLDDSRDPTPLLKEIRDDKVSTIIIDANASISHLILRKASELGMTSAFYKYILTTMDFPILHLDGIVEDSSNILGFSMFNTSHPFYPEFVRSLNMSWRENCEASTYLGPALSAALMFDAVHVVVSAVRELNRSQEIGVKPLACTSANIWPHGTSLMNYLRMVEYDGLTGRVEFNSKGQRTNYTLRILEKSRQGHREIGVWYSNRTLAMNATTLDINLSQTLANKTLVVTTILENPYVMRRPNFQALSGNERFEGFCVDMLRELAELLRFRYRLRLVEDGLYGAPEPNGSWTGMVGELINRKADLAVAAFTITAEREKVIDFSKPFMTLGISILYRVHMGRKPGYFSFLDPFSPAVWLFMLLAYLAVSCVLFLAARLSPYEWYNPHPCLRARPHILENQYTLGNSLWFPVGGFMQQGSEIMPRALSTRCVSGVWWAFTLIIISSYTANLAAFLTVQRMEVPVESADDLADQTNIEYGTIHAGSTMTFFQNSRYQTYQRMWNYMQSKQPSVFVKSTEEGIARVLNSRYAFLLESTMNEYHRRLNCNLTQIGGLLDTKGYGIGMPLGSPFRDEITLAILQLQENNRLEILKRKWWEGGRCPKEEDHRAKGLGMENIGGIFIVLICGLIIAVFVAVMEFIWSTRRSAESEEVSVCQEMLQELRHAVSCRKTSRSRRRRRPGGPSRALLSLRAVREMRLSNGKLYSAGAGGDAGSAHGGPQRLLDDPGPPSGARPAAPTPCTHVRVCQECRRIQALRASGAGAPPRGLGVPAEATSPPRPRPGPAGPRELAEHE
Description: Binding affinity to GluK5 receptor (unknown origin).

In another data set the target is Glutamate receptor 2 (Homo sapiens, UniProt P42262). Put plainly: Binding affinity to GluA2 receptor (unknown origin).
Chain of Glutamate receptor 2 (P42262 whole entry): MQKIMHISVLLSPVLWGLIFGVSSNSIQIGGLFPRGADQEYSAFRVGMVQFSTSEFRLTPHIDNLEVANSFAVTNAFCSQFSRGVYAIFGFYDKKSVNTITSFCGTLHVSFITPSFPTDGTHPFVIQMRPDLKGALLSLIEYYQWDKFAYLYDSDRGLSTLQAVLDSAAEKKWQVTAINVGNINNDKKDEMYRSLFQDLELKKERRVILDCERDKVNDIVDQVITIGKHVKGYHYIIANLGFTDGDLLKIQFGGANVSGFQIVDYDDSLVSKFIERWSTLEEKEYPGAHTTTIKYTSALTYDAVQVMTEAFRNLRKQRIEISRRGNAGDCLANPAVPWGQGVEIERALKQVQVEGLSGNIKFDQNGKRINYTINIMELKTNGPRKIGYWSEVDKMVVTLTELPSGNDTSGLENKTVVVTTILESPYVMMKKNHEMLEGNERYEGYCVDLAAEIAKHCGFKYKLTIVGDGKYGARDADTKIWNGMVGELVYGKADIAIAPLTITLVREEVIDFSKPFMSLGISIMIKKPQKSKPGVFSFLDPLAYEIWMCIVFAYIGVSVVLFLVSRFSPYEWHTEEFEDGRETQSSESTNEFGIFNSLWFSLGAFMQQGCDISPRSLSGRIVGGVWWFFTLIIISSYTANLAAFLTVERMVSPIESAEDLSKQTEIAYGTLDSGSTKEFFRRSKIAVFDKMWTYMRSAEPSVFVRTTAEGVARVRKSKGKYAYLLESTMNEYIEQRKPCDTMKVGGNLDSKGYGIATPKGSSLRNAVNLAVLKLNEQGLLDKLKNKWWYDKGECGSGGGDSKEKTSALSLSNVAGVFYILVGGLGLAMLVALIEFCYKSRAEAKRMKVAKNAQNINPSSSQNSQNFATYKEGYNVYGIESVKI
Data set [10] can be described thus: Inhibition of KA-induced cytotoxicity in human hippocampal cell culture. In kind it is toxicity, cell-based. Conditions: Hippocampal neurone.
The next data set concerns Mus musculus. Put plainly: Antiinflammatory activity against mouse assessed as reduction in carragenan-induced paw edema at 25 mg/kg,po treated 1 hr prior to carrageenan challenge. Further details: scale not given: the % may be the effect or the level left. In kind it is functional.
The target of data set [11] is Glutamate [NMDA] receptor. Put plainly: Displacement of [3H]MDL from NMDA receptor (unknown origin). In kind it is protein-complex assay, Homo sapiens.
Data set [12] in a line: Displacement of [3H]AMPA from NMDA receptor (unknown origin). It counts as protein-complex assay, Homo sapiens.
For another data set, the system named is Streptococcus pneumoniae. Description: Antibacterial activity against Streptococcus pneumoniae assessed as diameter zone of inhibition. It counts as functional.
Another data set deals with Pseudomonas aeruginosa. Put plainly: Antibacterial activity against Pseudomonas aeruginosa assessed as diameter zone of inhibition. In kind it is functional.
A further data set deals with MCF7. Description: Antiproliferative activity against human MCF7 cells. In kind it is functional, cell-based.
Data set [13] deals with Epidermal growth factor receptor (Homo sapiens, UniProt P00533, L858R). Description: Inhibition of EGFR L858R mutant (unknown origin).
Chain of Epidermal growth factor receptor (Homo sapiens, UniProt P00533, L858R) (P00533 25-1210 L858R limits assumed): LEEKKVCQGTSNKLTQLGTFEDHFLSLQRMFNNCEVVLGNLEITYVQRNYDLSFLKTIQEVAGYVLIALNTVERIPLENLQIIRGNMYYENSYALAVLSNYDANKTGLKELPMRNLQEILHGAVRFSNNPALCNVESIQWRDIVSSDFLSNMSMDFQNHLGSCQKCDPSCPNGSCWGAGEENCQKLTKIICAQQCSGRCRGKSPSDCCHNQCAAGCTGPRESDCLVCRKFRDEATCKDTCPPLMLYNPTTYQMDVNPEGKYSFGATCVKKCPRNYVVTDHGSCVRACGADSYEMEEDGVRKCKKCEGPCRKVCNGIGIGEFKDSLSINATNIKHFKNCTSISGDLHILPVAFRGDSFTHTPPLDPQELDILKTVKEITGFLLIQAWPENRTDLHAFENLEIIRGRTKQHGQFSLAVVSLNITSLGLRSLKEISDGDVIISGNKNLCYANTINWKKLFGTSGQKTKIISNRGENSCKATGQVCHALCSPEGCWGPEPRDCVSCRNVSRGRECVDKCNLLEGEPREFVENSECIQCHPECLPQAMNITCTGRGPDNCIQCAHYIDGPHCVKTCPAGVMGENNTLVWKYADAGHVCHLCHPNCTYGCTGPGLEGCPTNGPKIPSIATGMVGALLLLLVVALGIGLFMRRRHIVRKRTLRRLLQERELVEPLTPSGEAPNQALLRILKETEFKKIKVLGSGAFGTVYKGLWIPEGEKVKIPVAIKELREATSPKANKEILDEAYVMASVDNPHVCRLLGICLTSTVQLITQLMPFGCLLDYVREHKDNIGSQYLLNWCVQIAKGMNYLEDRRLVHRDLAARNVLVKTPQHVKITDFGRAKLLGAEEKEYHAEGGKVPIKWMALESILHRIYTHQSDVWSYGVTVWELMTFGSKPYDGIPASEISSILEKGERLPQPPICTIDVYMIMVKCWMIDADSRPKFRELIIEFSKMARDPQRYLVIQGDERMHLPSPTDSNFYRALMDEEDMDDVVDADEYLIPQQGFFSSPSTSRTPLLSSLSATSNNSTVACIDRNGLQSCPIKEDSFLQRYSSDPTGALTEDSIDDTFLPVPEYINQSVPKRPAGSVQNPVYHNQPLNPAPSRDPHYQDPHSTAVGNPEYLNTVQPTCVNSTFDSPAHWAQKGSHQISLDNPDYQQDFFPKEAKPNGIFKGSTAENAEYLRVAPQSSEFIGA
In data set [14] the target is Epidermal growth factor receptor (Homo sapiens, UniProt P00533). Put plainly: Inhibition of wild-type EGFR (unknown origin).
Chain of Epidermal growth factor receptor (Homo sapiens, UniProt P00533) (P00533 whole entry): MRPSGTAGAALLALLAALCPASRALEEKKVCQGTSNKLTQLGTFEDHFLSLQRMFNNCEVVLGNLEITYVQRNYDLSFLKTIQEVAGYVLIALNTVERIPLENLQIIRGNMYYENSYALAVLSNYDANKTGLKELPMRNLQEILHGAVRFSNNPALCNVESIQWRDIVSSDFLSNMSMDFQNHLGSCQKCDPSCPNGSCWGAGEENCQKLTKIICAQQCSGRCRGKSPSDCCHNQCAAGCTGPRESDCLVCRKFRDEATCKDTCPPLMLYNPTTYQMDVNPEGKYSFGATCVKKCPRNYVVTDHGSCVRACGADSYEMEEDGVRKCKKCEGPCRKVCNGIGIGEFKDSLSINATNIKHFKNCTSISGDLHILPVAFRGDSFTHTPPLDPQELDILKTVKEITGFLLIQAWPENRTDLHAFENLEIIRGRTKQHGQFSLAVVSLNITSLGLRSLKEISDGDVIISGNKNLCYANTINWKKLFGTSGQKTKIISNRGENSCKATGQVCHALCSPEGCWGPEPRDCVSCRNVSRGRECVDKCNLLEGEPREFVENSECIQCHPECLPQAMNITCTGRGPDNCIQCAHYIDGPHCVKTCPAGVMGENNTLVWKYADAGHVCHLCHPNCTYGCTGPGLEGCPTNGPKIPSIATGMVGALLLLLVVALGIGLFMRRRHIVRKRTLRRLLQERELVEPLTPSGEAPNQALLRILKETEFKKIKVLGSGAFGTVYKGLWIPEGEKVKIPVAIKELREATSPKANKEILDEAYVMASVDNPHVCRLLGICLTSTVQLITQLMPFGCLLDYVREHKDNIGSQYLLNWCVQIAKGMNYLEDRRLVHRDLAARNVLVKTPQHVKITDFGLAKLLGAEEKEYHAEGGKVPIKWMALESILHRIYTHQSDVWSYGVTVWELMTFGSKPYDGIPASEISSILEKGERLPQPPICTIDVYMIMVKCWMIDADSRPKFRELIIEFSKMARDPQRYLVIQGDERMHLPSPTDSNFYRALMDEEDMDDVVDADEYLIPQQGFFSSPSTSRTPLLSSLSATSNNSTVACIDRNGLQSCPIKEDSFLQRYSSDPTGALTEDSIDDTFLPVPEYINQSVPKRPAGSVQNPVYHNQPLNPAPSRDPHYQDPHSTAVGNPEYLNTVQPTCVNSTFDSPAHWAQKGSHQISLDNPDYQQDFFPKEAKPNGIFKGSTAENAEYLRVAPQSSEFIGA
A further data set concerns HCT-116. Description: Antiproliferative activity against human HCT-116 cells. In kind it is functional, cell-based.
For a further data set, the system named is HepG2. Description: Antiproliferative activity against human HepG2 cells. It counts as functional, cell-based.
In another data set the test system is WI-38. Put plainly: Antiproliferative activity against human WI-38 cells. In kind it is functional, cell-based.
The test system of the next data set is Salmonella typhimurium. Put plainly: Antibacterial activity against Salmonella typhimurium assessed as diameter zone of inhibition. It counts as functional, Salmonella enterica subsp. enterica serovar Typhimurium.
The subject of another data set is Bacillus subtilis. Put plainly: Antibacterial activity against Bacillus subtilis assessed as diameter zone of inhibition. It counts as functional.
The test system of another data set is Escherichia coli. Put plainly: Antibacterial activity against Escherichia coli assessed as diameter zone of inhibition. In kind it is functional.
The next data set deals with Staphylococcus aureus. Put plainly: Antibacterial activity against Staphylococcus aureus assessed as diameter zone of inhibition. It counts as functional.
Data set [15] in a line: Cytotoxicity against mock-infected human MT4 cells. In kind it is toxicity, cell-based.
A further data set concerns the target Trypsin (Homo sapiens, UniProt P07477+P07478+P35030). Put plainly: Inhibition of trypsin (unknown origin). It counts as protein assay.

Regarding `O=Cc1ccn(-c2cc3c(cc2Cl)nc(O)c2nc(C(=O)O)nn23)c1`, the IC50 in data set [1] stood at 43 µM; in data set [3] it was 8.9 µM; in data set [4] it was 1.2 µM; in data set [6], 23 µM. Also, the Ki in data set [2] stood at 0.53 µM; in [5], 28 µM.

For `O=c1[nH]c2cc(CO)c(CO)cc2[nH]c1=O`, the 50% inhibitory concentration (IC50) is 9.2 µM in [7], 9.3 µM in data set [2] and > 100 µM in [3].

As for `O=C(Nn1c(=O)c(=O)[nH]c2cc(C#CCO)ccc21)c1ccccc1`, the Ki worked out at 9.78 µM in data set [8], 100 µM in data set [9] and 37.4 µM at Glutamate receptor 2.

For the compound `O=c1[nH]c2cc([N+](=O)[O-])c(-n3ccnc3)nc2n2ccnc12`, the Ki in [2] was 0.057 µM. In data set [10], this compound yielded an IC50 of 0.3 µM.

With `CC(C)Cc1ccc(C(C)C(=O)O)cc1` (centres undefined) [IBUPROFEN], the Activity with Mus musculus amounted to 39.3%.

For `O=C(NCc1cc(Br)cc2[nH]c(=O)c(=O)[nH]c12)c1ccsc1`, the values for the IC50 in data set [11] and in data set [12] were 0.01 µM and 2 µM, respectively.

With `Cc1cc2[nH]c(=O)c(=O)[nH]c2cc1C=O`, the IC50 was found to be 4 µM in data set [7], 11 µM in data set [2] and 54 µM in [3].

`O=C1CN(C(=O)CCl)c2ccccc2N1`: the entries for the “diameter of the inhibition zone (DIZ)” value with Streptococcus pneumoniae and in the data set with Pseudomonas aeruginosa were 16 mm and 15 mm, respectively.

On to `O=C(NCc1cc(Br)cc2nc(O)c(O)nc12)c1cccs1`, for which the IC50 in [11] was 0.01 µM; in data set [12], 1.6 µM.

With `CCc1cnc2c(=O)[nH]c3cc([N+](=O)[O-])c(-n4ccnc4)nc3n12`, affinity in data set [2] was put at a Ki of 0.02 µM. In data set [10], this compound displayed an IC50 of 0.3 µM.

Take `O=c1[nH]c2cc(C(F)(F)F)c(-n3ccnc3)nc2n2ccnc12`: the Ki in data set [2] amounted to 0.066 µM. This compound also gave an IC50 in data set [10] of 0.32 µM.

Regarding `COC(=O)CCc1nc2ccc(Cl)cc2[nH]c1=O`, the concentration for half-maximal inhibition (IC50) amounted to 23.3 µM in the data set on MCF7; 0.0828 µM in data set [13]; 1.34 µM in data set [14]; 31.6 µM with HCT-116; 46.2 µM in the data set on HepG2; 242 µM in the data set on WI-38.

`Cc1cccc(C)c1NCC(=O)N1CC(=O)Nc2ccccc21`: the “diameter of the inhibition zone (DIZ)” value in the data set on Salmonella typhimurium was 9 mm; with Streptococcus pneumoniae, 8 mm; with Bacillus subtilis, 11 mm; in the data set with Escherichia coli, 10 mm; in the data set with Staphylococcus aureus it was 8 mm; in the data set on Pseudomonas aeruginosa, 11 mm.

For the compound `O=c1[nH]c2ccc(Cl)c(Cl)c2nc1CBr`, in data set [15], the midpoint of cytotoxicity, the CC50, lay at 24 µM.

`Cn1c(=O)c(Cc2ccc(C(=N)N)cc2)nc2cc(C3(C(=O)N4CCCC4C(=O)NCC(=O)O)CC3)ccc21` (centres undefined) showed an IC50 against Trypsin of 2.4 µM.

`O=C1CN(C(=O)CNc2cccc(Cl)c2)c2ccccc2N1`: the “diameter of the inhibition zone (DIZ)” value in the data set with Salmonella typhimurium and with Escherichia coli was 9 mm in each case.

Values taken from ChEMBL document CHEMBL5113380, “Functionalized quinoxalinones as privileged structures with broad-ranging pharmacological activities” (Eur J Med Chem, 2022).
